Several values for one entry are separate records, joined by “and”; a condition that tells them apart may be missing. Identical values can stand only once. Like-named read-outs stand apart in the source and are kept apart here.
What was measured:
[1] = tested on: wild-type Sprague Dawley rats; assay: DC-Maximal electroshock seizure assay (DC-MES); type: in vivo, rat; conditions: for WT rat DC-MES, fraction of animals seizing: sheet Figure 5G, 5H, 5I (rats)
Experimental: (§1) Phenytoin was formulated in physiologic saline and was administered intraperitoneally (i.p.) using a 25-gauge needle at a dose volume of 10 mL/kg. All compounds were administered 2 hr prior to electrical seizure induction for all seizure models employed in this study.
(§2) The maximal electroshock seizure (MES) assay has been extensively used in the search for anticonvulsant substances ([Löscher et al., 1991]; [Piredda et al., 1985]; [White et al., 1995]). The MES assay is sensitive to nonselective NaV inhibitors. It is considered a model for generalized tonic-clonic (GTC) seizures and provides an assessment of seizure spread. Briefly, an electroshock of direct current (DC) was delivered by corneal electrodes (Electro Convulsive Therapy Unit 57,800 from Ugo Basile). The parameters of stimulation were different between mice and rats. In CF1 mice aged 9–12 weeks, a direct current of 50 mA (60 Hz) was delivered for 0.2 s (pulse width of 0.5ms), whereas in Sprague Dawley (SD) rats aged 5–6 weeks, a direct current of 150 mA (60 Hz) was delivered for 0.3 s (pulse width of 0.5ms). Immediately prior to the electroshock, the animals’ eyes were anesthetized with a drop of Alcaine (0.5% proparacaine hydrochloride).
(§3) An animal was considered protected in the assay in the absence of a GTC with hindlimb extension and is then scored ‘0’. An animal displaying GTC with hindlimb extension was considered not protected and is then scored ‘1’. The experimenter scoring the seizure behavior was blinded to the treatment.

hNaV1.6 N984K = biological target: T1, hNaV1.6 N984K (Homo sapiens, UniProt Q9UQD0, N984K); assay: Automated patch-clamp, patient-identified variant in Expi293F cells; type: cell-based; set-up: h1.6-N984K 145756, Mean: scale not given here
T1 construct: expression vector containing the full-length cDNA coding for specific human and mouse sodium channel α-subunit; expressed in transfected cells; host or cells: Expi293F (transient, tetracycline-induced, pcDNA4/TO)
T1 sequence (Q9UQD0 whole entry N984K): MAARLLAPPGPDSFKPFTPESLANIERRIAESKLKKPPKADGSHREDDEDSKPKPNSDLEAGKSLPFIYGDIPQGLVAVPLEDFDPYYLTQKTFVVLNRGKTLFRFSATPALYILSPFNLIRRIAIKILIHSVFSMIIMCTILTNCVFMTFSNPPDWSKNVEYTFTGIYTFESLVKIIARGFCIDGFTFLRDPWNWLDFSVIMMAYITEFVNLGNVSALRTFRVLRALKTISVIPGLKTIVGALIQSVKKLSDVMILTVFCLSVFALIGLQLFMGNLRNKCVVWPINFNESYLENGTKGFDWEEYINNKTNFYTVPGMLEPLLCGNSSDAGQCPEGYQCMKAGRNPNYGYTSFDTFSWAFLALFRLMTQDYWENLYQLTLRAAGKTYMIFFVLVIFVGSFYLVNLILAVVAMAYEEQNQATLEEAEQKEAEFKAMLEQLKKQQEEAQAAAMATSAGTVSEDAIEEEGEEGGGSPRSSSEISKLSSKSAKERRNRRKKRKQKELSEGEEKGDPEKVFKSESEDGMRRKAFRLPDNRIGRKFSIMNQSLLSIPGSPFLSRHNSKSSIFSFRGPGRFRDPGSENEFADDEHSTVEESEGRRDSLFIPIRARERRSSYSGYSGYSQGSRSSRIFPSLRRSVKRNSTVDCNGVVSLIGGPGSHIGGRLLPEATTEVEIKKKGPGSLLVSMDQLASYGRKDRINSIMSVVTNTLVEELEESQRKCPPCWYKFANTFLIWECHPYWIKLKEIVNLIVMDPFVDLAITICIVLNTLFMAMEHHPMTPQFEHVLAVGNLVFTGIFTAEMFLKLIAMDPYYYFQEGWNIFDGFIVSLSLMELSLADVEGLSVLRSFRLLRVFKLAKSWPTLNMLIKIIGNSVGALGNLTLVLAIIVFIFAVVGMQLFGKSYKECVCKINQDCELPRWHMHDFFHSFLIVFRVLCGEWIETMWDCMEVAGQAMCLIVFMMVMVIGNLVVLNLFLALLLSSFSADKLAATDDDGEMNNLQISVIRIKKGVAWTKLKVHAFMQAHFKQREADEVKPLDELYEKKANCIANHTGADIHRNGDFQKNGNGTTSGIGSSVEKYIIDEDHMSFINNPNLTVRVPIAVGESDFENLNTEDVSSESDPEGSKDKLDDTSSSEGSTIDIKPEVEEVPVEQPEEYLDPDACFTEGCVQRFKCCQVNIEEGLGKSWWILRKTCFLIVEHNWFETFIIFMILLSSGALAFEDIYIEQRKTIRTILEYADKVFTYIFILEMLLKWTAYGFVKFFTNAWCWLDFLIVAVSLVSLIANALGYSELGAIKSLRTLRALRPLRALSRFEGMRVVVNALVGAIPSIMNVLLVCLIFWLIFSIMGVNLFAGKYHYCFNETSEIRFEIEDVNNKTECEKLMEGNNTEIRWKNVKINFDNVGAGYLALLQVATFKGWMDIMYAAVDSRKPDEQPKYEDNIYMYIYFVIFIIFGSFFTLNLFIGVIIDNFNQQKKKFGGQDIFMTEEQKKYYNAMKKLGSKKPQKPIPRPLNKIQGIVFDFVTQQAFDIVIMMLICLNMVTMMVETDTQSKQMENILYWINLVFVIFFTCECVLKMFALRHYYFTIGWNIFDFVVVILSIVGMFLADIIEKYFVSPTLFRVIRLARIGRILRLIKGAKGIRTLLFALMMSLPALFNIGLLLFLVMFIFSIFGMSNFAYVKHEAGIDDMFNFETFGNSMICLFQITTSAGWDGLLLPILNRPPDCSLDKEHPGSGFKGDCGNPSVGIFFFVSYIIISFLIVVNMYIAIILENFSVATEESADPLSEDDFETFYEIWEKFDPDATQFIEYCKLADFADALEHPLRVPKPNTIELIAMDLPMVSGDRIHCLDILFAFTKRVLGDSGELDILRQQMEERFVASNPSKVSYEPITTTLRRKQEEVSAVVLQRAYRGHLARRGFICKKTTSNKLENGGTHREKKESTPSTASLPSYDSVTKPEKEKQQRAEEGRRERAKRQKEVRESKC
Experimental: For studies of mutant channels, cDNA plasmids in pcDNA4/TO Mammalian Expression Vector were transiently transfected into Expi293F cells stably expressing human FHF2b and human SCN1B subunit (polyclonal) background using ExpiFectamine 293 Transfection Kits (Gibco,Thermo Fisher Scientific CAT #: A14524). Induction was achieved using Tetracycline (Sigma Aldrich). Transfected cells were used in automated patch-clamp experiments 24 hours postinduction.
Inorm(CPD)=(ICPD−Icontrol)/(ITTX−Icontrol).

hNaV1.6 = biological target: T2, hNaV1.6 (Homo sapiens, UniProt Q9UQD0); assay: V0.5 assay (holding potential -62 mV); type: cell-based; conditions: V0.5 assay -62 mV
T2 construct: expression vector containing the full-length cDNA coding for specific human and mouse sodium channel α-subunit; expressed in transfected cells
T2 sequence (Q9UQD0 whole entry): as the sequence (Q9UQD0 whole entry N984K) above, with K984N counted along it
T2 sequence (Q92913 1-192 isoform Q92913-2 partner): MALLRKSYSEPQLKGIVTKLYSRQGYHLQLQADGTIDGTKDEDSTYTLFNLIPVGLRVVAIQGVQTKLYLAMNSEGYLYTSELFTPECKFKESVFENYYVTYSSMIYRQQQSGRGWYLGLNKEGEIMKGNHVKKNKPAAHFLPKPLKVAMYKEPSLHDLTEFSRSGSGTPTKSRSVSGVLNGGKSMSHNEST

[2] = set-up: method as in Beatch et al., 2020; conditions: humans; ref Beatch et al., 2020; cited from earlier work
[3] = Bioanalytical assessment of plasma and brain concentrations after rat DC-MES assay; type: in vivo; conditions: sheet Figure 5G, 5H, 5I (rats); for concentration at 2 h: rat, po
hNaV1.1 = biological target: T3, hNaV1.1 (Homo sapiens, UniProt P35498); assay: Qube 384 automated patch-clamp, inactivated-state inhibition; type: cell-based
T3 construct: expression vector containing the full-length cDNA coding for specific human and mouse sodium channel α-subunit; expressed in transfected cells

wild-type mice (CF-1) = assay: DC-Maximal electroshock seizure assay (DC-MES); type: in vivo, mouse; conditions: for WT mouse DCMES Chronic, Fraction of animals seizing: day 7, 2 h after 13th dose; for WT mouse DCMES acute, Fraction of animals seizing: 2 h
Experimental: as §1, §2, §3

[4] = 1 mg/kg PO single dose, 2 hr, 1 mg/kg

Work on `Cc1cc(S(=O)(=O)Nc2cscn2)c(F)cc1N(C)[C@H]1CCN(Cc2ccccc2)C1` [NBI-921352] yielded an EC50 ([1]; WT rat DC-MES (oral; phenytoin i.p.), read-out: plasma EC50) of 150 nM, an EC50 ([1]; WT rat DC-MES, 2 hr post dose (oral; phenytoin i.p.), read-out: brain EC50) of 37 nM and an ED50 ([1]; WT rat DC-MES, oral, 2 hr, read-out: ED50, prevention of GTC with hindlimb extension) of 3.7 mg/kg. For the same compound, the “WT rat DC-MES, fraction of animals seizing” value (“WT rat DC-MES, fraction” below) ([1]; 1 mg/kg PO every 12 hr, day 7, 2 hr after 13th dose) was 0.4286, the “WT rat DC-MES, fraction” value [1, 4] was 0.75 and 1 and the “WT rat DC-MES, fraction” value ([1]; 3 mg/kg PO every 12 hr, day 7, 2 hr after 13th dose) was 0.25. For the same compound, the “WT rat DC-MES, fraction” value ([1]; 3 mg/kg PO single dose, 2 hr, 3 mg/kg) was 0.6 and 0.5714 and 0.4, the “WT rat DC-MES, fraction” value ([1]; 10 mg/kg PO single dose, 2 hr) was 0.1429 and the “WT rat DC-MES, fraction” value ([1]; 30 mg/kg PO single dose, 2 hr) was 0. For the same compound, the IC50 (hNaV1.6 N984K) was 32 nM, the “h1.6-N984K 145756, Mean” value (hNaV1.6 N984K; -5 LogM) was 0.94 and the “h1.6-N984K 145756, Mean” value (hNaV1.6 N984K; -5.47716 LogM) was 0.92. The “h1.6-N984K 145756, Mean” value (hNaV1.6 N984K; -5.95429 LogM) was 0.89, the “h1.6-N984K 145756, Mean” value (hNaV1.6 N984K; -6.4318 LogM) was 0.81 and the “h1.6-N984K 145756, Mean” value (hNaV1.6 N984K; -6.91009 LogM) was 0.66. The “h1.6-N984K 145756, Mean” value (hNaV1.6 N984K; -7.38722 LogM) was 0.56, the “h1.6-N984K 145756, Mean” value (hNaV1.6 N984K; -7.85387 LogM) was 0.33 and the “h1.6-N984K 145756, Mean” value (hNaV1.6 N984K; -8.33 LogM) was 0.09. For the same compound, the “Fraction of hNav1.6 current blocked, mean” value (“Fraction … mean” for short) (hNaV1.6; 0.0046 µM) was -0.01128, the “Fraction … mean” value (hNaV1.6; 0.0137 µM) was 0.1547 and the “Fraction … mean” value (hNaV1.6; 0.0412 µM) was 0.4966. The “Fraction … mean” value (hNaV1.6; 0.123 µM) was 0.6688, the “Fraction … mean” value (hNaV1.6; 0.37 µM) was 0.8319 and the “Fraction … mean” value (hNaV1.6; 1.11 µM) was 0.9499. The “Fraction … mean” value (hNaV1.6; 3.33 µM) was 0.9695, the “Fraction … mean” value (hNaV1.6; 10 µM) was 0.9977 and the half-life of elimination [2] was “approximately 8.5 hr”. It also gave a concentration at 2 h ([3]; brain, 1 mg/kg, 1 mg/kg PO every 12 hr, day 7, 2 hr after 13th dose, read-out: Mean [Brain]) of 12.5 nM, a concentration at 2 h ([3]; brain, 1 mg/kg, 1 mg/kg PO single dose, 2 hr, read-out: Mean [Brain]) of 16.6 nM and a concentration at 2 h ([3]; brain, 3 mg/kg, 3 mg/kg PO every 12 hr, day 7, 2 hr after 13th dose, read-out: Mean [Brain]) of 39.6 nM. It also gave a concentration at 2 h ([3]; brain, 10 mg/kg, 10 mg/kg PO single dose, 2 hr, read-out: Mean [Brain]) of 161 nM, a concentration at 2 h ([3]; brain, 30 mg/kg, 30 mg/kg PO single dose, 2 hr, read-out: Mean [Brain]) of 213 nM and a concentration at 2 h ([3]; plasma, 1 mg/kg, 1 mg/kg PO every 12 hr, day 7, 2 hr after 13th dose, read-out: Mean [Plasma]) of 33.9 nM. For the same compound, the concentration at 2 h ([3]; plasma, 3 mg/kg, 3 mg/kg PO every 12 hr, day 7, 2 hr after 13th dose, read-out: Mean [Plasma]) was 123 nM, the concentration at 2 h ([3]; plasma, 10 mg/kg, 10 mg/kg PO single dose, 2 hr, read-out: Mean [Plasma]) was 1150 nM and the concentration at 2 h ([3]; plasma, 30 mg/kg, 30 mg/kg PO single dose, 2 hr, read-out: Mean [Plasma]) was 2330 nM. The “Mean [Brain]” value [3, 4] was 0.02047 µM and 0.01429 µM and 0.01541 µM, the “hNav1.1 current in (352)/(Vehicle), mean” value (hNaV1.1; -4 Log M) was 0.68 and the “hNav1.1 current in (352)/(Vehicle), mean” value (hNaV1.1; -4.30103 Log M) was 0.57. For the same compound, the “hNav1.1 current in (352)/(Vehicle), mean” value (hNaV1.1; -4.47713 Log M) was 0.44, the “hNav1.1 current in (352)/(Vehicle), mean” value (hNaV1.1; -4.77814 Log M) was 0.3 and the “hNav1.1 current in (352)/(Vehicle), mean” value (hNaV1.1; -4.95425 Log M) was 0.25. For the same compound, the “hNav1.1 current in (352)/(Vehicle), mean” value (hNaV1.1; -5.25524 Log M) was 0.16, the “hNav1.1 current in (352)/(Vehicle), mean” value (hNaV1.1; -5.43133 Log M) was 0.12 and the “hNav1.1 current in (352)/(Vehicle), mean” value (hNaV1.1; -5.73236 Log M) was 0.07. For the same compound, the “hNav1.1 current in (352)/(Vehicle), mean” value (hNaV1.1; -5.90833 Log M) was 0.07, the “hNav1.1 current in (352)/(Vehicle), mean” value (hNaV1.1; -6.20971 Log M) was 0.04 and the “hNav1.1 current in (352)/(Vehicle), mean” value (hNaV1.1; -6.3851 Log M) was 0.03. The “hNav1.1 current in (352)/(Vehicle), mean” value (hNaV1.1; -6.68613 Log M) was 0.05, the “hNav1.1 current in (352)/(Vehicle), mean” value (hNaV1.1; -6.86328 Log M) was 0.01 and the “hNav1.1 current in (352)/(Vehicle), mean” value (hNaV1.1; -7.16115 Log M) was 0.04. For the same compound, the “hNav1.1 current in (352)/(Vehicle), mean” value (hNaV1.1; -7.33724 Log M) was 0, the “hNav1.1 current in (352)/(Vehicle), mean” value (hNaV1.1; -7.63827 Log M) was 0.01 and the “WT mouse DCMES Chronic, Fraction of animals seizing” value (“WT mouse DCMES Chronic, Fraction” for short) (wild-type mice (CF-1); 3 mg/kg PO every 12 hr) was 0.4 and 0.25. For the same compound, the “WT mouse DCMES acute, Fraction of animals seizing” value (shortened to “WT mouse DCMES acute, Fraction”) (wild-type mice (CF-1); 3 mg/kg PO single dose) was 0.8 and 0.75 and 0.7143, the “WT mouse DCMES Chronic, Fraction” value (wild-type mice (CF-1); 5 mg/kg PO every 12 hr) was 0.25 and 0.2857 and the “WT mouse DCMES acute, Fraction” value (wild-type mice (CF-1); 5 mg/kg PO single dose) was 0.625 and 0.7143. For the same compound, the “WT mouse DCMES Chronic, Fraction” value (wild-type mice (CF-1); 10 mg/kg PO every 12 hr) was 0.2, the “WT mouse DCMES acute, Fraction” value (wild-type mice (CF-1); 10 mg/kg PO single dose) was 0.6 and 0.4286 and 0.6667 and the “WT mouse DCMES acute, Fraction” value (wild-type mice (CF-1); 30 mg/kg PO single dose) was 0.3333 and 0.4 and 0.4286. For the same compound, the “WT mouse DCMES acute, Fraction” value (wild-type mice (CF-1); 100 mg/kg PO single dose) was 0.2857, the “WT mouse DCMES acute, Fraction” value (wild-type mice (CF-1); 200 mg/kg PO single dose) was 0.1667 and the EC50 (wild-type mice (CF-1); WT mouse DC-MES, 2 hr post dose (oral; phenytoin i.p.), read-out: brain EC50) was 200 nM. It also gave an ED50 (wild-type mice (CF-1); WT mouse DC-MES, oral, 2 hr, read-out: ED50, prevention of GTC with hindlimb extension) of 23 mg/kg and an EC50 (wild-type mice (CF-1); WT mouse DC-MES, read-out: plasma EC50) of 520 nM.

Reference: publication PMC8903829 (eLife, 2022)
